Measured values taken from patent US7446226B2 (priority 2003, dated 2008).

Assays:
Conditions in all cases: in vivo
[1] = system: growth of marine organisms on the painted surfaces
[2] = system: sea tulip Balanus improvisus
[3] = system: blue mussel Mytilus edulis
[4] = system: total growth of marine organisms on the panels

COc1cc(CNC(=O)CCCC/C=C/C(C)C)ccc1O [capsaicin, (E)-8-methyl-N-vanillyl-6-nonenamide]
Growth on surfaces by optical comparison with the control surfaces [1]: considerably less growth
Coverage of the sea tulip Balanus improvisus compared with the 2 other treatments [2]: significantly lower
Reduction in growth measured as coverage of the sea tulip [2]: 74%
Coverage of the blue mussel Mytilus edulis, difference between the 3 treatments [3]: no statistically significant difference
Reduction in growth measured as a reduction in wet weight of total growth [4]: 64%
Wet weight of the total growth on the panels compared with the two other treatments [4]: statistically lower growth
